Measured values as given in ChEMBL document CHEMBL4000149, “The effect of glycine replacement with flexible ω-amino acids on the antimicrobial and haemolytic activity of an amphipathic cyclic heptapeptide” (Eur J Med Chem, 2015).
Converted amounts (≈) assume the structure as drawn. Numbered stars: 1 amine (or outer) side, 2 acyl side, 3 side chain; on linkers, the order of the positions; unused ones are H or OH. Bridge positions count the residues as written; N and C are the ends. Square brackets hold non-standard residues; d marks the D form. Peptide text beside a SMILES is read from it. ξ: configuration not given here. Bip = N[C@@H](Cc1ccc(-c2ccccc2)cc1)C(=O)O; Dip = N[C@H](C(=O)O)C(c1ccccc1)c1ccccc1; 2Nal = N[C@@H](Cc1ccc2ccccc2c1)C(=O)O; Cha = N[C@@H](CC1CCCCC1)C(=O)O; X1 = NC(CCN[*:2])C(=O)[*:1]; ξAoc(2) = CCCCCCC(N)C(=O)O; ξNle = CCCCC(N)C(=O)O; Aoc = NCCCCCCCC(=O)O; ξDab = NCCC(N)C(=O)O; Ahx = NCCCCCC(=O)O; GABA = NCCCC(=O)O

Experiments:
[1] = tested on: Staphylococcus aureus; experiment: Antimicrobial activity against methicillin-resistant Staphylococcus aureus ATCC 33591 by tube dilution method; assay type: functional
[2] = tested on: Escherichia coli; experiment: Antimicrobial activity against Escherichia coli ATCC 25922 by tube dilution method; assay type: functional
[3] = tested on: Enterococcus faecium; experiment: Antimicrobial activity against vancomycin-resistant Enterococcus faecium ATCC 700221 by tube dilution method; assay type: functional
[4] = tested on: Klebsiella pneumoniae; experiment: Antimicrobial activity against multidrug-resistant Klebsiella pneumoniae ATCC 700603 by tube dilution method; assay type: functional
[5] = tested on: Pseudomonas aeruginosa; experiment: Antimicrobial activity against Pseudomonas aeruginosa ATCC 27853 by tube dilution method; assay type: functional
[6] = tested on: Candida albicans; experiment: Antifungal activity against Candida albicans ATCC 200955 by tube dilution method; assay type: functional
[7] = tested on: Acinetobacter baumannii; experiment: Antimicrobial activity against multidrug-resistant Acinetobacter baumannii ATCC BAA-1605 by tube dilution method; assay type: functional
[8] = Toxicity in human erythrocytes assessed as hemolysis after 1 hr; assay type: cell-based, Erythrocyte
[9] = Toxicity in human erythrocytes assessed as hemolysis at 150 uM after 1 hr; assay type: cell-based, Erythrocyte; conditions: read-out: Activity

Row | SMILES | MIC [1] [µM] | MIC [2] [µM] | MIC [3] [µM] | MIC [4] [µM] | MIC [5] [µM] | MIC [6] [µM] | MIC [7] [µM] | EC50 at 1 hr [8] [µM] | hemolysis at 1 h, 150 µM [9] [%]
1 | CC(C)C[C@@H]1NC(=O)C(N)CCNC(=O)CCCNC(=O)[C@H](Cc2ccc3ccccc3c2)NC(=O)[C@H](CCCNC(=N)N)NC(=O)[C@H](CC(C)C)NC(=O)[C@H](Cc2ccc3ccccc3c2)NC(=O)[C@H](CCCNC(=N)N)NC1=O (stereo partly specified) (H-[ξDab]LR[2Nal]LR[2Nal][GABA]; lactam 1-C) | 8 (≈ 8.95 µg/mL) | 32 (≈ 35.8 µg/mL) | 8 (≈ 8.95 µg/mL) | 64 (≈ 71.6 µg/mL) | 64 (≈ 71.6 µg/mL) | 32 (≈ 35.8 µg/mL) | 64 (≈ 71.6 µg/mL) | 420 | < 8
2 | CC(C)C[C@@H]1NC(=O)[C@H](Cc2ccc3ccccc3c2)NC(=O)[C@H](CCCNC(=N)N)NC(=O)[C@H](CC2CCCCC2)NC(=O)CNC(=O)[C@H](Cc2ccc3ccccc3c2)NC(=O)[C@H](CCCNC(=N)N)NC1=O (cyclo([2Nal]G[Cha]R[2Nal]LR)) | 16 (≈ 16.5 µg/mL) | 32 (≈ 33 µg/mL) | 16 (≈ 16.5 µg/mL) | 128 (≈ 132 µg/mL) | 128 (≈ 132 µg/mL) | 32 (≈ 33 µg/mL) | 64 (≈ 65.9 µg/mL) | 28 | 99
3 | CC(C)C[C@@H]1NC(=O)CNC(=O)[C@@H](Cc2ccc3ccccc3c2)NC(=O)[C@H](CCCNC(=N)N)NC(=O)[C@H](CC(C)C)NC(=O)[C@H](Cc2ccc3ccccc3c2)NC(=O)[C@H](CCCNC(=N)N)NC1=O | 32 (≈ 31.7 µg/mL) | 128 (≈ 127 µg/mL) | 16 (≈ 15.8 µg/mL) | > 128 | > 128 | 64 (≈ 63.4 µg/mL) | 128 (≈ 127 µg/mL) | > 150 | < 8
4 | CC(C)C[C@@H]1NC(=O)C(N)CCNC(=O)C(N)CCNC(=O)[C@H](Cc2ccc3ccccc3c2)NC(=O)[C@H](CCCNC(=N)N)NC(=O)[C@H](CC(C)C)NC(=O)[C@H](Cc2ccc3ccccc3c2)NC(=O)[C@H](CCCNC(=N)N)NC1=O (stereo partly specified) (H-[ξDab]LR[2Nal]LR[2Nal]; linker 1-C via X1) | 16 (≈ 18.1 µg/mL) | 32 (≈ 36.3 µg/mL) | 8 (≈ 9.07 µg/mL) | 128 (≈ 145 µg/mL) | 32 (≈ 36.3 µg/mL) | 16 (≈ 18.1 µg/mL) | 128 (≈ 145 µg/mL) | > 450 | < 8
5 | CC(C)C[C@@H]1NC(=O)CNC(=O)[C@H](Cc2ccc3ccccc3c2)NC(=O)[C@H](CCCNC(=N)N)NC(=O)[C@H]([C@@H](C)O)NC(=O)[C@H](Cc2ccc3ccccc3c2)NC(=O)[C@H](CCCNC(=N)N)NC1=O (cyclo([2Nal]GLR[2Nal]TR)) | 128 (≈ 125 µg/mL) | 128 (≈ 125 µg/mL) | 128 (≈ 125 µg/mL) | > 128 | > 128 | 128 (≈ 125 µg/mL) | > 128 | > 150 | < 8
6 | CC(C)C[C@@H]1NC(=O)CNC(=O)[C@H](Cc2ccc3ccccc3c2)NC(=O)[C@H](CCCNC(=N)N)NC(=O)[C@H](CC2CCCCC2)NC(=O)[C@H](Cc2ccc3ccccc3c2)NC(=O)[C@H](CCCNC(=N)N)NC1=O (cyclo([2Nal][Cha]R[2Nal]GLR)) | 8 (≈ 8.24 µg/mL) | 16 (≈ 16.5 µg/mL) | 16 (≈ 16.5 µg/mL) | 64 (≈ 65.9 µg/mL) | 128 (≈ 132 µg/mL) | 16 (≈ 16.5 µg/mL) | 64 (≈ 65.9 µg/mL) | 60 | 96
7 | CCCCCC[C@H]1NC(=O)[C@H](Cc2ccc3ccccc3c2)NC(=O)[C@H](CCCNC(=N)N)NC(=O)[C@H](CC(C)C)NC(=O)CNC(=O)[C@H](Cc2ccc3ccccc3c2)NC(=O)[C@H](CCCNC(=N)N)NC1=O | 8 (≈ 8.15 µg/mL) | 32 (≈ 32.6 µg/mL) | 8 (≈ 8.15 µg/mL) | 64 (≈ 65.2 µg/mL) | 64 (≈ 65.2 µg/mL) | 16 (≈ 16.3 µg/mL) | 32 (≈ 32.6 µg/mL) | 55 | 100
8 | CC(C)C[C@@H]1NC(=O)[C@H](Cc2ccc3ccccc3c2)NC(=O)[C@H](CCCNC(=N)N)NC(=O)[C@@H]2CCCN2C(=O)CNC(=O)[C@H](Cc2ccc3ccccc3c2)NC(=O)[C@H](CCCNC(=N)N)NC1=O (cyclo([2Nal]GPR[2Nal]LR)) | 64 (≈ 62.3 µg/mL) | > 128 | 16 (≈ 15.6 µg/mL) | > 128 | 128 (≈ 125 µg/mL) | 64 (≈ 62.3 µg/mL) | > 128 | > 150 | < 8
9 | CCCCC1NC(=O)[C@H](Cc2ccc3ccccc3c2)NC(=O)[C@H](CCCNC(=N)N)NC(=O)[C@H](CC(C)C)NC(=O)CNC(=O)[C@H](Cc2ccc3ccccc3c2)NC(=O)[C@H](CCCNC(=N)N)NC1=O (stereo partly specified) (cyclo([2Nal]GLR[2Nal][ξNle]R)) | 32 (≈ 31.7 µg/mL) | > 128 | 16 (≈ 15.8 µg/mL) | > 128 | > 128 | > 128 | > 128 | > 150 | 35
10 | CC(C)C[C@@H]1NC(=O)[C@H](Cc2ccc3ccccc3c2)NC(=O)[C@H](CCCNC(=N)N)NC(=O)[C@H](CC(C)C)NC(=O)[C@@H](N)CCCCNC(=O)[C@H](Cc2ccc3ccccc3c2)NC(=O)[C@H](CCCNC(=N)N)NC1=O (H-KLR[2Nal]LR[2Nal]; lactam 1-C) | 8 (≈ 8.49 µg/mL) | 32 (≈ 34 µg/mL) | 4 (≈ 4.25 µg/mL) | 32 (≈ 34 µg/mL) | 32 (≈ 34 µg/mL) | 8 (≈ 8.49 µg/mL) | 32 (≈ 34 µg/mL) | 150 | 51
11 | CC[C@H](C)[C@@H]1NC(=O)[C@H](Cc2ccc3ccccc3c2)NC(=O)[C@H](CCCNC(=N)N)NC(=O)[C@H]([C@@H](C)O)NC(=O)CCCCCCCNC(=O)[C@H](Cc2ccc3ccccc3c2)NC(=O)[C@H](CCCNC(=N)N)NC1=O (cyclo([2Nal][Aoc]TR[2Nal]IR)) | 32 (≈ 34 µg/mL) | 128 (≈ 136 µg/mL) | 16 (≈ 17 µg/mL) | > 128 | > 128 | 64 (≈ 68 µg/mL) | 128 (≈ 136 µg/mL) | > 150 | 10
12 | CC(C)C[C@@H]1NC(=O)CNC(=O)[C@H](Cc2c[nH]c3ccccc23)NC(=O)[C@H](CCCCN)NC(=O)[C@H](CC(C)C)NC(=O)[C@H](Cc2c[nH]c3ccccc23)NC(=O)[C@H](CCCCN)NC1=O (cyclo(GLKWLKW)) | > 128 | 128 (≈ 117 µg/mL) | 128 (≈ 117 µg/mL) | > 128 | > 128 | > 128 | 128 (≈ 117 µg/mL) | > 150 | < 8
13 | CC(C)C[C@@H]1NC(=O)CNC(=O)[C@H](Cc2ccc(-c3ccccc3)cc2)NC(=O)[C@H](CCCNC(=N)N)NC(=O)[C@H](CC(C)C)NC(=O)[C@H](Cc2ccc(-c3ccccc3)cc2)NC(=O)[C@H](CCCNC(=N)N)NC1=O (cyclo([Bip]GLR[Bip]LR)) | 8 (≈ 8.34 µg/mL) | 16 (≈ 16.7 µg/mL) | 8 (≈ 8.34 µg/mL) | 32 (≈ 33.4 µg/mL) | 64 (≈ 66.7 µg/mL) | 16 (≈ 16.7 µg/mL) | 32 (≈ 33.4 µg/mL) | 16 | 96
14 | CC(C)C[C@@H]1NC(=O)CNC(=O)[C@H](Cc2c[nH]c3ccccc23)NC(=O)[C@H](CCCNC(=N)N)NC(=O)[C@H](CC(C)C)NC(=O)[C@H](Cc2c[nH]c3ccccc23)NC(=O)[C@H](CCCNC(=N)N)NC1=O (cyclo(GLRWLRW)) | 128 (≈ 124 µg/mL) | > 128 | 64 (≈ 62 µg/mL) | > 128 | > 128 | > 128 | > 128 | > 150 | < 8
15 | CC(C)C[C@@H]1NC(=O)CCCCCNC(=O)[C@H](Cc2ccc3ccccc3c2)NC(=O)[C@H](CCCNC(=N)N)NC(=O)[C@H](CC(C)C)NC(=O)[C@H](Cc2ccc3ccccc3c2)NC(=O)[C@H](CCCNC(=N)N)NC1=O (cyclo([2Nal][Ahx]LR[2Nal]LR)) | 8 (≈ 8.37 µg/mL) | 32 (≈ 33.5 µg/mL) | 4 (≈ 4.19 µg/mL) | 128 (≈ 134 µg/mL) | 64 (≈ 67 µg/mL) | 16 (≈ 16.7 µg/mL) | 64 (≈ 67 µg/mL) | 115 | 75
16 | CCCCCCC1NC(=O)[C@@H](Cc2ccc3ccccc3c2)NC(=O)[C@H](CCCNC(=N)N)NC(=O)[C@H](CC(C)C)NC(=O)CNC(=O)[C@H](Cc2ccc3ccccc3c2)NC(=O)[C@H](CCCNC(=N)N)NC1=O (stereo partly specified) | 8 (≈ 8.15 µg/mL) | 32 (≈ 32.6 µg/mL) | 8 (≈ 8.15 µg/mL) | 64 (≈ 65.2 µg/mL) | 64 (≈ 65.2 µg/mL) | 16 (≈ 16.3 µg/mL) | 64 (≈ 65.2 µg/mL) | 55 | 92
17 | CC(C)C[C@@H]1NC(=O)CNC(=O)[C@H](Cc2ccc(O)cc2)NC(=O)[C@H](CCCNC(=N)N)NC(=O)[C@H](CC(C)C)NC(=O)[C@H](Cc2ccc3ccccc3c2)NC(=O)[C@H](CCCNC(=N)N)NC1=O (cyclo([2Nal]LRYGLR)) | 128 (≈ 122 µg/mL) | > 128 | 64 (≈ 61.2 µg/mL) | > 128 | > 128 | > 128 | > 128 | > 150 | 19
18 | CC(C)C[C@@H]1NC(=O)CNC(=O)[C@H](C(c2ccccc2)c2ccccc2)NC(=O)[C@H](CCCNC(=N)N)NC(=O)[C@H](CC(C)C)NC(=O)[C@H](C(c2ccccc2)c2ccccc2)NC(=O)[C@H](CCCNC(=N)N)NC1=O (cyclo([Dip]GLR[Dip]LR)) | 16 (≈ 16.7 µg/mL) | 64 (≈ 66.7 µg/mL) | 16 (≈ 16.7 µg/mL) | 128 (≈ 133 µg/mL) | > 128 | 64 (≈ 66.7 µg/mL) | 64 (≈ 66.7 µg/mL) | 145 | 54
19 | CCCCCCC1NC(=O)[C@H](Cc2ccc3ccccc3c2)NC(=O)[C@H](CCCNC(=N)N)NC(=O)[C@H](CC(C)C)NC(=O)C(N)CCNC(=O)C(N)CCNC(=O)[C@H](Cc2ccc3ccccc3c2)NC(=O)[C@H](CCCNC(=N)N)NC1=O (stereo partly specified) (H-[ξDab]LR[2Nal][ξAoc(2)]R[2Nal]; linker 1-C via X1) | 4 (≈ 4.65 µg/mL) | 16 (≈ 18.6 µg/mL) | 4 (≈ 4.65 µg/mL) | 64 (≈ 74.3 µg/mL) | 32 (≈ 37.2 µg/mL) | 8 (≈ 9.29 µg/mL) | 64 (≈ 74.3 µg/mL) | 55 | 100
